Measured values taken from US20020026053A1, “Novel 3-(substituted) -2- indolinones compounds and use thereof as inhibitors of protein kinase activity” (priority 1997, published 2002).

Test system: FLK-1 receptor
Experiment: FLK-1 Assay (cellular/catalytic ELISA, VEGF-stimulated phosphotyrosine)
Type: cell-based
Set-up: concentration or dose not given beside the values
Details: protocol P.110
Method in brief: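 Receptor phosphotyrosine ELISA: Flk-1-expressing NIH3T3 C7#3 cells, starved overnight in 0.1% FBS medium, received compound (1:200 final dilution, 0.5% DMSO) for 2 h at 37 °C, then VEGF. Anti-FLK-1-captured receptor was probed with anti-phosphotyrosine UB40 and peroxidase/ABTS read-out, relative to cells without compound.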

Row | Compound | Flk Kinase % Inhibition (P.110)
1 | O=C1Nc2ccc(S(=O)(=O)N3CCOCC3)cc2C1=Cc1cc(F)ccc1F [10737/F04] | 12.2%
2 | O=C1Nc2ccc(S(=O)(=O)N3CCOCC3)cc2C1=Cc1cccc(F)c1F [10737/F05] | 18.4%
3 | COc1ccc(C=C2C(=O)Nc3ccc(S(=O)(=O)N4CCOCC4)cc32)cc1F [10737/F06] | 12.3%
4 | Cc1ccc(C)c(C=C2C(=O)Nc3ccc(S(=O)(=O)N4CCOCC4)cc32)c1 [10737/F07] | 19.1%
5 | O=C1Nc2ccc(S(=O)(=O)N3CCOCC3)cc2C1=Cc1ccc2ccccc2c1 [10737/F08] | 20.7%
6 | O=C1Nc2ccc(S(=O)(=O)N3CCOCC3)cc2C1=Cc1ccc(Oc2ccccc2)cc1 [10737/F09] | 15.4%
7 | CC(C)(C)c1ccc(Oc2cccc(C=C3C(=O)Nc4ccc(S(=O)(=O)N5CCOCC5)cc43)c2)cc1 [10737/F10] | 26.1%
8 | O=C1Nc2ccc(S(=O)(=O)N3CCOCC3)cc2C1=Cc1cccc(Oc2cccc(C(F)(F)F)c2)c1 [10737/F11] | 31.6%
9 | CCOc1ccc(C=C2C(=O)Nc3ccc(CCCl)cc32)cc1 [10737/G02] | 8.7%
10 | Cc1ccc(C=C2C(=O)Nc3ccc(CCCl)cc32)c(C)c1 [10737/G03] | 13.6%
11 | O=C1Nc2ccc(CCCl)cc2C1=Cc1cc(F)ccc1F [10737/G04] | 12.1%
12 | O=C1Nc2ccc(CCCl)cc2C1=Cc1cccc(F)c1F [10737/G05] | 16.4%
13 | COc1ccc(C=C2C(=O)Nc3ccc(CCCl)cc32)cc1F [10737/G06] | 12.8%
14 | Cc1ccc(C)c(C=C2C(=O)Nc3ccc(CCCl)cc32)c1 [10737/G07] | 20.3%
15 | O=C1Nc2ccc(CCCl)cc2C1=Cc1ccc2ccccc2c1 [10737/G08] | 16.4%
16 | O=C1Nc2ccc(CCCl)cc2C1=Cc1ccc(Oc2ccccc2)cc1 [10737/G09] | 15.2%
17 | CC(C)(C)c1ccc(Oc2cccc(C=C3C(=O)Nc4ccc(CCCl)cc43)c2)cc1 [10737/G10] | 13.3%
18 | O=C1Nc2ccc(CCCl)cc2C1=Cc1cccc(Oc2cccc(C(F)(F)F)c2)c1 [10737/G11] | 11.7%
19 | CCOc1ccc(C=C2C(=O)Nc3c(Br)cc(Br)c(C)c32)cc1 [10737/H02] | 3.1%
20 | Cc1ccc(C=C2C(=O)Nc3c(Br)cc(Br)c(C)c32)c(C)c1 [10737/H03] | 3.2%
21 | Cc1c(Br)cc(Br)c2c1C(=Cc1cc(F)ccc1F)C(=O)N2 [10737/H04] | 11.6%
22 | Cc1c(Br)cc(Br)c2c1C(=Cc1cccc(F)c1F)C(=O)N2 [10737/H05] | 9.9%
23 | COc1ccc(C=C2C(=O)Nc3c(Br)cc(Br)c(C)c32)cc1F [10737/H06] | 5.8%
